The source of these data is patent US8143288B2, “Inhibitors of HCV replication” (priority 2005, dated 2012).

One data set has as its system HCV replicon. In words: Combination studies in HCV replicon system (FRET, method of Chou). It is filed as cell-based. The conditions noted are these: for combination response: in combination with Example 3, replicon cells, 72 hours. The procedure: Since clinical drug resistance often develops in viral infections following single-agent therapies, there is a need to assess the additive, antagonistic, or synergistic properties of combination therapies. […] Drugs were tested at eleven concentrations each, diluted in DMSO by 3-fold dilutions. The highest concentration used for the four HCV inhibitors was 0.1 μM for Example 3 and 20 μM for the three other HCV antivirals. […] The drugs were tested as monotherapies and in combination with Example 3 at various concentration ratios. Cells were exposed to compounds for 72 hours and the amount of HCV inhibition was then determined using the FRET assay. The potential cytotoxicities of these combined agents were also analyzed in parallel by Alamar blue staining. The degree of antagonism or synergy was determined over a range of drug concentrations, and the combination response curves were fit to assess the antiviral effects of the drug treatment combinations. The concentration ratios were analyzed using the method of Chou. Table 5 reports the combination indices (CI) and the asymptotic confidence intervals at the different concentration ratios. All combination indices were tested for departure from additivity using isobologram methods.

The subject of data set [1] is HCV 1b-377-neo replicon cells. Nature of the data set: HCV replicon FRET assay. The conditions noted are these: Hepatitis C virus. It is filed as cell-based. Background: Replicon systems follow genome replication, usually without infectious particles.
For a further data set, the system named is HCV. The conditions noted are these: HCV therapy, Poynard et al. 1998; cited from earlier work.
The nature of data set [2]: Alamar blue cytotoxicity (CC50) in Y > H replicon cells. It is filed as cell-based. The conditions noted are these: human. The procedure:
(§1) At subsequent various times (typically 72 hours), 10% final volume Alamar blue (Cat#00-100, Trek Diagnostics, Cleveland, Ohio) was added to each well. The plates were returned to the incubator for 5 hours and then read in the Cytoflour (PE Biosystems) to determine Alamar blue conversion in each well as a measure of cellular toxicity. After reading the Alamar blue fluorescence following the manufacturers directions, plates were rinsed 2× with PBS and then used for FRET assay by the addition of 30 μl of the FRET peptide assay reagent (described above) per well. The plate was then placed into the Cytoflour 4000 instrument which had been set to 340 excite/490 emission, automatic mode for 20 cycles and the plate read in a kinetic mode. Typically, the signal to noise using an endpoint analysis after the reads was at least three-fold.
The assay was further adapted to accommodate titrations of compounds to determine EC50 and CC50 values.
(§2) To determine if the Y2065H change was necessary and sufficient to confer resistance to Compound A, the single mutation was generated in the HCV 1b-377-neo replicon. […] To further verify this, colonies formed in the absence of Compound A were isolated and expanded for both the wild-type and Y2065H clones. Sensitivity of these cells to Compound A was then examined using the FRET assay.

Data set [3] can be described thus: Alamar blue cytotoxicity (CC50) in replicon cells. It is filed as cell-based. The following applies: human, wild-type HCV 1b-377-neo replicon cells. The procedure: as §1
Compound analysis depended upon the quantification of the relative HCV replicon inhibition and the relative cytotoxicity values. To calculate cytotoxicity values, the average alamar blue fluorescence signals from the control wells in row 11 were set as 100% non-toxic. The individual signals in each of the compound test wells were then divided by the average control signal and multiplied by 100% to determine […]. […]

Data set [4] relates to Y2065H HCV 1b-377-neo replicon cells. In words: FRET assay on Y2065H (Y > H) replicon cells. It is filed as cell-based. The conditions noted are these: for EC50: Hepatitis C virus.
The test system of data set [5] is Y2065H HCV 1b-377-neo replicon. In words: Colony formation, Y2065H replicon RNA in Huh-7 cells. It is filed as cell-based. The conditions noted are these: Y > H RNA transfected, 2 μM Compound A, 3 weeks G418 selection.
Description: as §2

Data set [6] deals with Compound A-r replicon cells. In words: FRET assay on selected Compound A-r replicon cells. It is filed as cell-based, HCV. The following applies: judged by the FRET assay; cells selected with Compound A 5-6 weeks. As for the experimental part:
HCV 1b-377-neo replicon cells were plated in 100-mm plates with ˜25% confluence after 24 hour seeding. Compound A (prepared by the procedure described in WO04/014852, published Feb. 19, 2004) was added at the final concentrations of 5, 10 and 20 μM in the presence of G418. Wild type replicon cells 15 in the absence of the compound were used as a control. After 5-6 weeks, both wt replicon cells and selected cells were tested for their sensitivity to Compound A. In addition, cell lines derived from individual colonies from different concentrations of selective Compound A were also isolated, expanded and tested. In the initial test, approximately 60-fold resistance, judged by the FRET assay, was observed between wt replicon cells and selected replicon cells (designated as Compound A-r replicon cells).

For data set [7], the system named is wild-type HCV 1b-377-neo replicon. In words: Colony formation, wild-type replicon RNA in Huh-7 cells. The following applies: 2 μM Compound A. It is filed as cell-based.
Description: as §2

Setting [8] is: combined with Example 3, molar ratio 1:1.
Where [9] appears, read: combined with Example 3, molar ratio 1:2.5.
Where [10] appears, read: combined with Example 3, molar ratio 2.5:1.
Setting [11] is: monotherapy, 72 hours, FRET assay, read-out: EC50 in monotherapy.
Setting [12] is: Wild-type replicon cells, FRET assay, read-out: EC50.

Where two headings read alike, the source gives them in different places. Some results are limits rather than exact numbers.

As for `C=CC1CC1(NC(=O)[C@@H]1C[C@@H](Oc2cc(-c3ccccc3)nc3cc(OC)ccc23)CN1C(=O)C(NC(=O)OC(C)(C)C)C(C)(C)C)C(=O)O` (stereo partly shown) [protease inhibitor], the entries for the “CI at HCV inhibition of: 75%” value with HCV replicon (setting [8]), in the data set with HCV replicon (setting [9]) and in the data set on HCV replicon (setting [10]) were 0.96 +/− 0.38, 0.78 +/− 0.22 and 0.88 +/− 0.27, respectively. In addition, the “CI at HCV inhibition of: 90%” value is 0.91 +/− 0.55 with HCV replicon (setting [8]), 0.76 +/− 0.33 in the data set with HCV replicon (setting [9]) and 0.81 +/− 0.40 in the data set with HCV replicon (setting [10]). Besides, the “CI at HCV inhibition of: 95%” value in the data set with HCV replicon (setting [8]) is 0.88 +/− 0.69; in the data set with HCV replicon (setting [9]), 0.75 +/− 0.43; with HCV replicon (setting [10]), 0.77 +/− 0.49. The “Overall Result” value in the data set on HCV replicon (setting [8]) is “Additive”; in the data set on HCV replicon (setting [9]) it was “Synergistic/Additive”; with HCV replicon (setting [10]), “Additive”. Further, the “CI at HCV inhibition of: 50%” value is on record as 1.05 +/− 0.29 with HCV replicon (combined with Example 3, molar ratio 1:1 (first number Example 3)); 0.82 +/− 0.17 in the data set on HCV replicon (combined with Example 3, molar ratio 1:2.5 (first number Example 3)); 0.97 +/− 0.22 in the data set on HCV replicon (combined with Example 3, molar ratio 2.5:1 (first number Example 3)). Moreover, the “combination response” value with HCV replicon is “additive response”. Besides, the EC50 in [1] (setting [11]) is 330 nM.
Turning to alpha-interferon and ribavirin, the sustained efficacy in the data set with HCV is 40 % of patients.
Turning to `O=C(Nc1ccc(/C=C/c2ccc(NC(=O)[C@@H]3CCCN3C(=O)Cc3ccccc3)cc2)cc1)[C@@H]1CCCN1C(=O)Cc1ccccc1` [Example 3], the CC50 at 72 h in data set [2] and in data set [3] was > 5000 nM in each case. In the data set with HCV replicon, the “combination response” value is listed as “no significant drug antagonism”. For the same molecule, the EC50 is > 5000 nM in [4]; 0.1 to 90 nM in [1] (HCV replicon, read-out: Activity (EC50)); < 50 nM in data set [1] (setting [12]); < 50 nM in [1] (setting [11]). In addition, the “window of resistance in Y2065H cells as compared to wild-type cells” value in data set [4] (Y2065H vs wild-type cells) is > 100 fold.
For the molecule `C[C@H](NC(=O)OCc1ccccc1)C(=O)Nc1ccc(C2S/C(=N\c3cccc(F)c3)N(Cc3ccco3)C2=O)cc1` (stereo partly shown) [Compound A, reference compound], the CC50 at 72 h in data set [2] and in data set [3] was > 5000 nM in each case. For the same molecule, the Number of colonies in [5] stood at 10; in data set [7] (Wild-type RNA transfected, 3 weeks G418 selection) it was 3. In addition, the EC50 is > 5000 nM in data set [4] and 1500 nM in [1] (setting [12]). In addition, the “resistance between wt replicon cells and selected replicon cells” value in data set [6] is “approximately 60 fold”. For the same molecule, the “reduction in colony number” value in [7] (wild-type replicon RNA) was determined as 95%.

The term EC50 denotes the concentration giving half of the maximal effect. The term CC50 denotes the concentration giving 50% cytotoxicity.
